Drawing on ChEMBL document CHEMBL4130595, “Antitubercular Nitroimidazoles Revisited: Synthesis and Activity of the Authentic 3-Nitro Isomer of Pretomanid” (ACS Med Chem Lett, 2017), this text covers MIC and IC50 for nine molecules.

In assay [1] the test system is Mycobacterium tuberculosis. The assay is described as follows: Antitubercular activity against Mycobacterium tuberculosis H37Rv measured after 7 days under aerobic condition by alamar blue assay. It counts as functional. The conditions noted are these: 168 h. (In general: Alamar Blue is a resazurin reagent that responds to reducing activity.)
The test system of assay [2] is Mycobacterium tuberculosis. Description: Antitubercular activity against Mycobacterium tuberculosis H37Rv ATCC 27294 incubated for 10 days under low oxygen condition followed by second incubation under aerobic condition for 28 hrs by LORA. The class given is functional.
The subject of the next assay is Vero. The assay is described as follows: Cytotoxicity against African green monkey Vero cells after 72 hrs by MTS/PMS assay. It counts as cell-based. The conditions noted are these: Chlorocebus sabaeus.

Values after ≈ are worked out from the molar mass of the structure shown. Some results are limits rather than exact numbers.

The term MIC denotes the lowest concentration that inhibits growth of the organism. `NNC(=O)c1ccncc1` [ISONIAZID]: the MIC in assay [1] is 0.34 µM (≈ 0.0466 µg/mL); in assay [2] it was above 128 µM.

As a reminder, the IC50 is the concentration at which inhibition is half-maximal. In the case of `Cc1cc(CO[C@@H]2COc3nc([N+](=O)[O-])cn3C2)ccc1OC(F)(F)F`, the IC50 with Vero was above 128 µM. The MIC in assay [1] worked out at 0.063 µM (≈ 0.0235 µg/mL); in assay [2], 1 µM (≈ 0.373 µg/mL).

Take `O=[N+]([O-])c1cnc2n1C[C@H](O)CO2`: the half-maximal inhibitory concentration (IC50) with Vero is above 128 µM. Besides, the MIC in assay [1] and in assay [2] was above 128 µM throughout.

In the assay on Vero, `CO[C@H]1/C=C/O[C@@]2(C)Oc3c(C)c(O)c4c(O)c(c(/C=N/N5CCN(C)CC5)c(O)c4c3C2=O)NC(=O)/C(C)=C\C=C\[C@H](C)[C@H](O)[C@@H](C)[C@@H](O)[C@@H](C)[C@H](OC(C)=O)[C@@H]1C` [RIFAMPIN] displayed an IC50 above 100 µM. For the same molecule, the figures for the MIC in assay [1] and in assay [2] were 0.049 µM (≈ 0.0403 µg/mL) and 0.64 µM (≈ 0.527 µg/mL), respectively.

In the case of `CC(=O)NC[C@H]1CN(c2ccc(N3CCOCC3)c(F)c2)C(=O)O1` [LINEZOLID], the MIC in assay [1] is 2.9 µM (≈ 0.978 µg/mL); in assay [2] it was 2.8 µM (≈ 0.945 µg/mL).

In the assay with Vero, `COc1nc2ccc(Br)cc2cc1[C@@H](c1ccccc1)[C@@](O)(CCN(C)C)c1cccc2ccccc12` [BEDAQUILINE] showed an IC50 above 10 µM. Moreover, the MIC in assay [1] was 0.07 µM (≈ 0.0389 µg/mL); in assay [2], 0.11 µM (≈ 0.0611 µg/mL).

For the molecule `COc1c(N2C[C@@H]3CCCN[C@@H]3C2)c(F)cc2c(=O)c(C(=O)O)cn(C3CC3)c12` [MOXIFLOXACIN], the minimal inhibitory concentration (MIC) in assay [1] was 0.42 µM (≈ 0.169 µg/mL); in assay [2], above 128 µM.

Turning to `Cc1ncc([N+](=O)[O-])n1CCO` [METRONIDAZOLE], the MIC is above 512 µM in assay [1] and 79 µM (≈ 13.5 µg/mL) in assay [2].

`O=[N+]([O-])c1cnc2n1C[C@H](OCc1ccc(OC(F)(F)F)cc1)CO2`: the IC50 in the assay with Vero is above 128 µM. Moreover, the MIC in assay [1] and in assay [2] was above 128 µM throughout.
